Reference: patent US20210369720A1, “SYNERGISTIC COMPOSITION HAVING NEUROPROTECTIVE PROPERTIES AND METHODS OF USE THEREOF” (Rutgers, The State University of New Jersey, priority 2018, published 2021)

Assays:
Syn^Tg mice = assay: Nesting behavior, Syn^Tg mice; format: in vivo; settings: EHT 12 mg/kg/day in chow and/or caffeine 50 mg/kg/day in drinking water from weaning until six months of age, vs untreated Syn^Tg mice
Excerpt: (§1) Thy1-α-synuclein transgenic mice (Syn^Tg) on BDF1 background overexpressing human wild-type α-synuclein under the control of the Thy1 promoter were maintained by mating heterozygous transgenic females with WT BDF1 males (Rockenstein E, et al. (2002) Differential neuropathological alterations in transgenic mice expressing alpha-synuclein from the platelet-derived growth factor and Thy-1 promoters. J Neurosci Res 68(5):568-578). BDF1 mice (mixed C57BL/6-DBA/2) were generated every three months by mating female C57BL/6 (The Jackson Laboratory) and male DBA/2 mice (Charles River). Experiments were performed with male transgenic mice and their WT littermates. […] Wild-type littermates received regular water and control chow. […] At two months of age, mice were inoculated with α-Syn PFF unilaterally in the striatum. These treatments continued throughout the experiment until animals were sacrificed. Mice were weighed and their food and water intake was quantified weekly. Animals were housed 2-5/cage in an AAALAC approved facility in a temperature- and humidity-controlled environment under a 12-hour light/dark cycle and were maintained on a diet of lab chow and water ad libitum. […]

[1] = tested on: phosphorylated α-synuclein (p-α-Syn); assay: Western blot of p-α-Syn in cortical tissue lysates, Syn^Tg mice; format: in vivo; settings: EHT 12 mg/kg/day and/or caffeine 50 mg/kg/day until six months of age, vs untreated Syn^Tg mice
Excerpt: as §1, with “weekly.” for “weekly. Animals were housed 2-5/cage in an AAALAC approved facility in a temperature- and humidity-controlled environment under a 12-hour light/dark cycle and were maintained on a diet of lab chow and water ad libitum.”
Human neuroblastoma SH-SY5Y cells were cultured in DMEM-F12 with 10% FBS. […] Protein concentration was determined by bicinchonic acid (BCA) method (Pierce), equal amount of protein was separated on 5-20% SDS-PAGE gel (Genescript) and transferred to nitrocellulose or PVDF membrane (Biorad). […]

SH-SY5Y cells = assay: Cytotoxicity of α-Syn PFF by propidium iodide (PI) exclusion in SH-SY5Y cells; format: cell-based, Human; settings: SH-SY5Y cells challenged with mouse α-Syn PFF for seven days; vs untreated α-Syn PFF-challenged cells (2.5 fold increase of PI positive cells)
PP2A [2] = assay: Western blot of PP2A methylation in SH-SY5Y cells challenged with α-Syn PFF; format: cell-based, Human; settings: SH-SY5Y cells challenged with mouse α-Syn PFF for 7 days; caffeine and/or EHT added to the medium
Procedure: (§2) Human neuroblastoma SH-SY5Y cells were cultured in DMEM-F12 with 10% FBS. At 50% confluency, cells were treated with 1 gg/ml mouse α-Syn PFF in DMEM-F12 with 1% FBS for 7 days. Medium was refreshed every 3 days. Cell harvesting was done with 2% SDS in PBS supplemented with protease inhibitor (Millipore) and phosphatase inhibitor (Sigma-Aldrich). Lysates were sonicated and boiled at 95° C. for 5 minutes. Protein concentration was determined by bicinchonic acid (BCA) method (Pierce), equal amount of protein was separated on 5-20% SDS-PAGE gel (Genescript) and transferred to nitrocellulose or PVDF membrane (Biorad). Following transfer, membranes were blocked for 1 hour at room temperature in blocking buffer (Li-Cor) or 5% (w/v) BSA/TBS-Tween 0.1% (v/v). Primary antibodies were diluted in blocking buffer or 5% (w/v) BSA/TBS-Tween 0.1% (v/v) and incubated with the membranes at 4° C. overnight. Membranes were washed three times in TBS-Tween and incubated in diluted IRDye 800CW or HRP conjugated secondary antibody for 1 hour at room temperature. Following washing, membranes were scanned by Li-Cor Odyssey CLx infrared imaging system or treated with the Western Lightning ECL-plus reagents (PerkinElmer) and exposed to autoradiography films (LabScientific).

[3] = molecular target: T1, PP2A methylesterase (PME-1) (Homo sapiens, UniProt Q9Y570); settings: cited from earlier work
T1 sequence (Q9Y570 1-386): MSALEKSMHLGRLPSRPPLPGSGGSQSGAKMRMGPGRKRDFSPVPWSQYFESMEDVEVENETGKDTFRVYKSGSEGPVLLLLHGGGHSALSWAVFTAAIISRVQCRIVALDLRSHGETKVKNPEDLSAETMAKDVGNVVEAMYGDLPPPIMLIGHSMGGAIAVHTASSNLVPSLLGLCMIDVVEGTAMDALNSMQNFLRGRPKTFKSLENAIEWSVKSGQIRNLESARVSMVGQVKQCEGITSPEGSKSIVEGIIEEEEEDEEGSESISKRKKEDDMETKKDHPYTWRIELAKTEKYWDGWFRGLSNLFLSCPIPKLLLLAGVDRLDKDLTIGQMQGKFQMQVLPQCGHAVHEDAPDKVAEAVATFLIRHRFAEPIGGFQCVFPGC

[4] = tested on: phosphorylated α-synuclein (p-α-Syn); assay: Immunohistochemical staining of p-α-Syn, Syn^Tg mice; format: in vivo; settings: EHT 12 mg/kg/day and/or caffeine 50 mg/kg/day until six months of age, vs untreated Syn^Tg mice
Excerpt: as §1, with “weekly.” for “weekly. Animals were housed 2-5/cage in an AAALAC approved facility in a temperature- and humidity-controlled environment under a 12-hour light/dark cycle and were maintained on a diet of lab chow and water ad libitum.”
Vectastain elite ABC kit (Vector Laboratories, Burlingame, Calif.) and 3,3′-diaminobenzidine (Sigma-Aldrich) were used for amplifying and color development. […] For other stains, the whole microscopic field was analyzed. For p-α-Syn stains in the cortex, four matching regions in each of two sections per animal were counted.

PP2A [5] = assay: Western blot of PP2A methylation, striatal tissue lysates of Syn^Tg mice; format: in vivo; settings: EHT 12 mg/kg/day and/or caffeine 50 mg/kg/day
Excerpt: Thy1-α-synuclein transgenic mice (Syn^Tg) on BDF1 background overexpressing human wild-type α-synuclein under the control of the Thy1 promoter were maintained by mating heterozygous transgenic females with WT BDF1 males (Rockenstein E, et al. (2002) Differential neuropathological alterations in transgenic mice expressing alpha-synuclein from the platelet-derived growth factor and Thy-1 promoters. J Neurosci Res 68(5):568-578). BDF1 mice (mixed C57BL/6-DBA/2) were generated every three months by mating female C57BL/6 (The Jackson Laboratory) and male DBA/2 mice (Charles River). Experiments were performed with male transgenic mice and their WT littermates. […] Wild-type littermates received regular water and control chow. […] At two months of age, mice were inoculated with α-Syn PFF unilaterally in the striatum. These treatments continued throughout the experiment until animals were sacrificed. Mice were weighed and their food and water intake was quantified weekly. Animals were housed 2-5/cage in an AAALAC approved facility in a temperature- and humidity-controlled environment under a 12-hour light/dark cycle and were maintained on a diet of lab chow and water ad libitum. All animal procedures were approved by the Rutgers-Robert Wood Johnson Medical School Institutional Animal Care and Use Committee and were performed according to the National Institutes of Health Guide for the Care and Use of Laboratory Animals.
as §2

CCCCCCCCCCCCCCCCCCCC(=O)NCCc1c[nH]c2ccc(O)cc12 [EHT, eicosanoyl-5-hydroxytryptamide]
nesting behavior (Syn^Tg mice): did not improve performance
p-α-Syn levels by Western blot, cortical tissue lysates [1]: no significant effect
cytotoxicity of α-Syn PFF, number of PI positive cells (cell viability) (SH-SY5Y cells): modestly protected
demethylated PP2A levels (PP2A [2]): partially reversed this trend
methyl- to demethyl-PP2A ratio (PP2A [2]): not individually
methylated PP2A levels (PP2A [2]): partially reversed this trend
inhibition of the activity of the PP2A methylesterase (PME-1) [3]: inhibit the activity
number of p-α-Syn immunoreactive cells, hippocampus (FIG. 2B) [4]: reduced p-α-Syn positive cells
ratio between methyl- and demethyl-PP2A (PP2A [5]): did not change
Demethylated PP2A (demethyl-PP2A) levels (PP2A [5]; normalized to total PP2A): not affected
Methylated PP2A (Methyl-PP2A) levels (PP2A [5]; normalized to total PP2A): did not change
